Measured values: US10517877B2, “Compounds and methods for modulating frataxin expression” (Wisconsin Alumni Research Foundation, priority 2016, dated 2019)

Experiments:
[1] = tested on: frataxin (FXN) mRNA in GM15850 cells; test: FXN mRNA by RT-PCR in GM15850 FRDA patient cell line; type: cell-based, human; conditions: 1 μM, 24 hours, normalized to TBP, relative to 0.1% DMSO
Text: GM15850 and GM15851 cell lines (Epstein Barr virus transformed human B-lymphocytes) were obtained from the National Institute of General Medical Sciences (NIGMS) Human Genetic Cell Repository at the Coriell Institute for Medical Research, Camden, N.J. The GM15850 cell line was derived from a clinically affected Friedreich's ataxia patient ataxia displaying scoliosis, hypertrophic cardiomyopathy, and slurred speech, and characterized as homozygous for the GAA expansion in the frataxin gene with alleles of approximately 650 and 1030 repeats. The GM15851 cell line was derived from a clinically unaffected individual having two FRDA alleles in the normal range of GAA trinucleotide repeats (from about 6 to about 34 repeats). This clinically unaffected individual is a sibling of the clinically affected patient from which the GM15850 cell line was derived.
Cells were maintained in RPMI 1640 supplemented with 2 mM L-glutamine and 15% fetal bovine serum (FBS) at 37° C. in a humidified atmosphere of 5% CO2. Cell density was maintained between 200,000 cells/mL and 1,000,000 cells/mL. Cell growth and morphology were monitored by phase contrast microscopy and cell viability by trypan blue exclusion. To maintain cell density, cells were passaged by centrifuging at 500g for 3 minutes and resuspending the cells in fresh media. […]

[2] = tested on: FXN protein in GM15851 cells; test: Immunoblot for FXN protein in GM15851 cells; type: cell-based, human; conditions: 24 hours, 1 μM, Agent 4 0.1, 0.5 or 1 μM
Experimental: (§1) In FIG. 3A, “50” refers to GM15850 cells and in FIG. 3B, “51” refers to GM15851 cells. Cells were treated as in Example 4.
(§2) Total cell extracts from cell lines were used for immunoblot analysis. Antibodies to frataxin (abcam ab110328, 1:250 dilution) or alpha-Tubulin (Cell Signaling Technologies 2144, 1:1000 dilution) were used. Signal was detected by chemiluminescence with HRP-conjugated secondary antibodies (Bio-Rad 172-1011, 1:2000 for anti-mouse frataxin and GE NA934V, 1:2000 for anti-rabbit alpha-Tubulin).

[3] = tested on: FXN-GAA-Luc reporter cell line; test: Luciferase reporter assay, FXN-GAA-Luc line (~310 GAA repeats); type: cell-based; conditions: 24 hours, Agent 4 at 1 or 2 μM, other treatments 2 μM
Experimental: Treatments are 2 μM unless otherwise indicated. Results are mean±SEM (n=4).

[4] = tested on: FXN protein in GM15850 cells; test: Immunoblot for FXN protein in GM15850 cells; type: cell-based, human; conditions: 24 hours, 1 μM, Agent 4 0.1, 0.5 or 1 μM
Experimental: as §1, §2

[5] = tested on: MYC transcription in MM cells; conditions: MM cells bearing IgH rearrangement at the MYC locus; cited from earlier work
[6] = tested on: cell cycle; conditions: cited from earlier work

Row | SMILES | increase in FXN mRNA levels [1] | FXN protein (immunoblot) [2] | luciferase activity [3] | FXN protein (immunoblot) [4] | MYC transcription [5] | cell cycle effect [6]
1 | Cc1sc2c(c1C)C(c1ccc(Cl)cc1)=N[C@@H](CC(=O)NCCOCCOCCOCCOCCOCCOCCC(=O)NCCCN(C)CCCNC(=O)CCNC(=O)c1cc(NC(=O)c3cc(NC(=O)c4nc(NC(=O)c5cc(NC(=O)CCCNC(=O)c6nc(NC(=O)c7cc(NC(=O)c8cc(NC(=O)c9sccc9Cl)cn8C)cn7C)cn6C)cn5C)cn4C)cn3C)cn1C)c1nnc(C)n1-2 [Control Conjugate 2] | no increase | increase in FXN protein | – | – | – | –
2 | Cc1sc2c(c1C)C(c1ccc(Cl)cc1)=N[C@@H](CC(=O)OC(C)(C)C)c1nnc(C)n1-2 [JQ1] | no increase | – | Significant activation was not observed | Neither polyamide alone (3), nor JQ1, nor the unconjugated treatment induced increased production of FXN protein | inhibits MYC transcription in a dose- and time-dependent manner | known to cause cell cycle arrest
